Measured values as given in patent publication CN1119437A, “环缩酚酸肽pf1022衍生物” (Meiji Seika Kaisha Ltd, priority 1993, dated 1996).

Experiments:
鸡蛔虫 = assay: Chicken roundworm removal test (Test 1); assay type: in vivo
巴西日园线虫 = assay: Anthelmintic efficacy against rat intestinal nematode (Test 3); assay type: in vivo; conditions: male Wistar rats, 2000 larvae s.c., 10 mg/kg 7 days after infection, adult worms in small intestine counted 10 days after dosing

Compound | 杀虫率 (鸡蛔虫; dose 5 mg/kg) [%] | 存留虫收(average value±SD) (巴西日园线虫) | further results
环—(L—MeLeu—D—PhLac—L—MeLeu—D—Lac—L—MeLeu—D—TYRA(OBn)—L—MeLeu—D—Lac) [PF1022-022] | 84 |  | 
CC(C)CC1C(=O)OC(CC2CCCCC2)C(=O)N(C)C(CC(C)C)C(=O)OC(C)C(=O)N(C)C(CC(C)C)C(=O)OC(CC2CCCCC2)C(=O)N(C)C(CC(C)C)C(=O)OC(C)C(=O)N1C (centres unmarked) [PF1022-ADH, 十二氢—PF 1022] | 30 |  | 
CC(C)CC1C(=O)OC(C)C(=O)N(C)C(CC(C)C)C(=O)OC(C)C(=O)N(C)C(CC(C)C)C(=O)OC(C)C(=O)N(C)C(CC(C)C)C(=O)OC(C)C(=O)N1C (centres unmarked) [PF1022-002, 环—(L—meLeu—D—Lac—)4] |  | 1976.5±306.2 | 
CC(C)CC1C(=O)OC(CC2CCCCC2)C(=O)N(C)C(CC(C)C)C(=O)OC(C)C(=O)N(C)C(CC(C)C)C(=O)OC(Cc2ccccc2)C(=O)N(C)C(CC(C)C)C(=O)OC(C)C(=O)N1C (centres unmarked) [PF1022-AHH, 六氢—PF1022] | 62 |  | 
CC(C)CC1NC(=O)C(Cc2ccccc2)OC(=O)C(CC(C)C)N(C)C(=O)C(C)OC(=O)C(CC(C)C)NC(=O)C(Cc2ccccc2)OC(=O)C(CC(C)C)N(C)C(=O)C(C)OC1=O (centres unmarked) [PF1022-218, 环—(L—MeLeu—D—PhLac—L—Leu—D—Lac)2] |  | 2400±362.0 | 
环—(L—MeLeu—D—VALA—L—MeLeu—D—Lac)2 [PF1022-209] |  | 827±388.9 | 
CC(C)C[C@H]1OC(=O)[C@H](CC(C)C)N(C)C(=O)[C@@H](C)OC(=O)[C@H](CC(C)C)N(C)C(=O)[C@@H](Cc2ccccc2)OC(=O)[C@H](CC(C)C)N(C)C(=O)[C@@H](C)OC(=O)[C@H](CC(C)C)N(C)C1=O [PF1022-003, 环—(—L—MeLeu—D—Lac—L—MeLeu—D—PhLac—L—Meleu—D—Lac—L—Meleu—D—LEUA)] |  | 689±48.1 | 杀虫率 (鸡蛔虫; dose 10 mg/kg): 76%
CC(C)C[C@H]1C(=O)O[C@H](Cc2ccc(O)cc2)C(=O)N(C)[C@@H](CC(C)C)C(=O)O[C@H](C)C(=O)N(C)[C@@H](CC(C)C)C(=O)O[C@H](Cc2ccccc2)C(=O)N(C)[C@@H](CC(C)C)C(=O)O[C@H](C)C(=O)N1C [PF1022 E, 环—(—L—MeLeu—D—Lac—L—MeLeu—D—TYRA—L—MeLeu-D—Lac—L—Mekeu—D—PhLac)] |  | 2175±134.4 | 杀虫率 (鸡蛔虫; dose 0.5 mg/kg): 70%
CC(C)C[C@H]1C(=O)O[C@H](Cc2ccccc2)C(=O)N(C)[C@@H](CC(C)C)C(=O)O[C@H](C)C(=O)N(C)[C@@H](CC(C)C)C(=O)O[C@H](Cc2ccccc2)C(=O)N(C)[C@@H](CC(C)C)C(=O)O[C@H](C)C(=O)N1C [PF1022] |  | 403±32.5 | 杀虫率 (鸡蛔虫; dose 0.5 mg/kg): 50-70%; 杀虫率 (鸡蛔虫; dose 1.0 mg/kg): 60-86%
CC(C)C[C@@H]1NC(=O)[C@@H](C)OC(=O)[C@H](CC(C)C)N(C)C(=O)[C@@H](Cc2ccccc2)OC(=O)[C@H](CC(C)C)NC(=O)[C@@H](C)OC(=O)[C@H](CC(C)C)N(C)C(=O)[C@@H](Cc2ccccc2)OC1=O [PF1022-219, 环—(L—MeLeu—D—Lac—L—Leu—D—PhLac)2] |  | 2084.5±94.0 | 
